The IC50 is the point on the concentration scale where inhibition reaches its midpoint. A lower IC50 goes with greater potency. Usually CLint scaled stands for the rate of metabolic loss divided by the concentration. Low values mean greater metabolic stability, high ones faster metabolism. As usually defined, the inhibition is the share of the control response that was lost under treatment. Higher therefore signals strong suppression.

This passage reports IC50, CLint scaled and inhibition results from ChEMBL document CHEMBL6087433, “Discovery of ART0380, a Potent and Selective ATR Kinase Inhibitor Undergoing Phase 2 Clinical Studies for the Treatment of Advanced or Metastatic Solid Cancers” (J Med Chem, 2024).

Series [1] has as its target Serine/threonine-protein kinase ATR (Homo sapiens, UniProt Q13535).
Series [2] concerns the target T1, Serine/threonine-protein kinase mTOR (Homo sapiens, UniProt P42345).
Description: Inhibition of mTOR (unknown origin) by LANCE Ultra assay
The target of series [3] is T1, Serine/threonine-protein kinase mTOR. The source holds these as a separate data set.
A further series is described as follows: in vitro. The settings on record: human, human liver microsomes. On the technique in general: Liver microsomes are a subcellular fraction often used to study metabolism.
The next series has as its target CYP3A4 (Homo sapiens, UniProt P08684). The series is described as follows: in vitro. The settings on record: human liver microsomes, probe midazolam.

Serine/threonine-protein kinase ATR, sequence (Q13535 whole entry): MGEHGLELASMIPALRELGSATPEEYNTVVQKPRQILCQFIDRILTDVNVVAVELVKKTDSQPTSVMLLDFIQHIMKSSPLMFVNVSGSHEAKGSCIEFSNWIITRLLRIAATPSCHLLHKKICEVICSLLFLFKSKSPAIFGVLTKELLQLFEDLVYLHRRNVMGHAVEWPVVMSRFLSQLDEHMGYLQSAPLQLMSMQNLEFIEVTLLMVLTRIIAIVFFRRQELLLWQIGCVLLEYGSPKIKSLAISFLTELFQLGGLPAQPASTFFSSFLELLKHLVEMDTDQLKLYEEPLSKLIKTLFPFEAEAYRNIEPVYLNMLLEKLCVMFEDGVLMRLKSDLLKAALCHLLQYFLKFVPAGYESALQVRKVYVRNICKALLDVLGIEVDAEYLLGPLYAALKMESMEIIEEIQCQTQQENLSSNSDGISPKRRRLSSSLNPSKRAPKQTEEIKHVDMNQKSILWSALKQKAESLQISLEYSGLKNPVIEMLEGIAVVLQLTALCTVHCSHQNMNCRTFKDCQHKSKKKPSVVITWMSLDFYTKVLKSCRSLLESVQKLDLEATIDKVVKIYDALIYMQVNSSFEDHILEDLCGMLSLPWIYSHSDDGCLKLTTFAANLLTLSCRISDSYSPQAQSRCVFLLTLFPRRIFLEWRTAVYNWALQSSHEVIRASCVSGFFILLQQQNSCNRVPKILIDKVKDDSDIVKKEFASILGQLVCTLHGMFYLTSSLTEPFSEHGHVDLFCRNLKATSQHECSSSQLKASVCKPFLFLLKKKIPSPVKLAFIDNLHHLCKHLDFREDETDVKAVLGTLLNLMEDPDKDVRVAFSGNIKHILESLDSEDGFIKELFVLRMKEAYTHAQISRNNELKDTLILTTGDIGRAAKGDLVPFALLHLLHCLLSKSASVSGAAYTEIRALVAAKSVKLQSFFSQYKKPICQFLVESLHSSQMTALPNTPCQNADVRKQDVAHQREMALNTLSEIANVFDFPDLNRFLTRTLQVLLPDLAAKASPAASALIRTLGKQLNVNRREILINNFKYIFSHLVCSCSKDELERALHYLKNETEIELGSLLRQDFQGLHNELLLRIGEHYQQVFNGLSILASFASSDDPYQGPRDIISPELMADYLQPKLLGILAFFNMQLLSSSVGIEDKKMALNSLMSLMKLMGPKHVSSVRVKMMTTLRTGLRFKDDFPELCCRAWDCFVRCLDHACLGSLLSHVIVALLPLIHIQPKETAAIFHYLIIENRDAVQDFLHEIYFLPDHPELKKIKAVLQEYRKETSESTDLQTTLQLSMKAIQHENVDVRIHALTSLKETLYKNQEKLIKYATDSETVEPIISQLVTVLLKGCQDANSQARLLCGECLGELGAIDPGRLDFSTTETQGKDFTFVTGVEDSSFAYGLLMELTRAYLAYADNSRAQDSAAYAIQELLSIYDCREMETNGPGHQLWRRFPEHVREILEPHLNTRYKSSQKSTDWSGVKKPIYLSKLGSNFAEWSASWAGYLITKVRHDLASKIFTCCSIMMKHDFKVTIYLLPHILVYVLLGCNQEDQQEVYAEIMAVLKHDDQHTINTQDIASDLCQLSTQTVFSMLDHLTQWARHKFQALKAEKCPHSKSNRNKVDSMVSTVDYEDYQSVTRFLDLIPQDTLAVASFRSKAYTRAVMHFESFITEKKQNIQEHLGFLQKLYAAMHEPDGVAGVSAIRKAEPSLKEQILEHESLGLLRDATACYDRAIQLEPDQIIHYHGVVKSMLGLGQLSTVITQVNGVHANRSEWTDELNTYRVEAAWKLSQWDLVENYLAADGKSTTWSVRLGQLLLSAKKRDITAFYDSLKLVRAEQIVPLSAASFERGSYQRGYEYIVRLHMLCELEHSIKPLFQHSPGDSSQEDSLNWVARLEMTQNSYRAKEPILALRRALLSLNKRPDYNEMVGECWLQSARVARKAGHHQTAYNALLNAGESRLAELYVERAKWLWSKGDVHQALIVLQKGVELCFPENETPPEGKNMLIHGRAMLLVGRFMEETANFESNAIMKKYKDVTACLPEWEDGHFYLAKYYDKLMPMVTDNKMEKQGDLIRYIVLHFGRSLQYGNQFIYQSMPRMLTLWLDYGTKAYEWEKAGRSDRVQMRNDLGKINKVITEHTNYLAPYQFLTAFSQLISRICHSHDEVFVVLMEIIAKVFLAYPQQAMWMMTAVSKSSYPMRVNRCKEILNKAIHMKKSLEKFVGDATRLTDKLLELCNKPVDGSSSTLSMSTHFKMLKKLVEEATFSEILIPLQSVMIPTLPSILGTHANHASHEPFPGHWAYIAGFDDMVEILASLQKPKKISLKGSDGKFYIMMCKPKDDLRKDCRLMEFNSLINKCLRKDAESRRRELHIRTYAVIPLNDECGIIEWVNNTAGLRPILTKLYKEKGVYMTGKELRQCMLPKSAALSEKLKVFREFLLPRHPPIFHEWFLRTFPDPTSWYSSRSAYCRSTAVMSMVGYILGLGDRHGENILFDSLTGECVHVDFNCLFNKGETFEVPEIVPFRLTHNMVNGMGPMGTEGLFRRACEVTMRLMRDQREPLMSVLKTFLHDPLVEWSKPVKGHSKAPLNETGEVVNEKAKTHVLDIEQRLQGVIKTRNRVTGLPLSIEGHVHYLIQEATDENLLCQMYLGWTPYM
CYP3A4, sequence (P08684 whole entry): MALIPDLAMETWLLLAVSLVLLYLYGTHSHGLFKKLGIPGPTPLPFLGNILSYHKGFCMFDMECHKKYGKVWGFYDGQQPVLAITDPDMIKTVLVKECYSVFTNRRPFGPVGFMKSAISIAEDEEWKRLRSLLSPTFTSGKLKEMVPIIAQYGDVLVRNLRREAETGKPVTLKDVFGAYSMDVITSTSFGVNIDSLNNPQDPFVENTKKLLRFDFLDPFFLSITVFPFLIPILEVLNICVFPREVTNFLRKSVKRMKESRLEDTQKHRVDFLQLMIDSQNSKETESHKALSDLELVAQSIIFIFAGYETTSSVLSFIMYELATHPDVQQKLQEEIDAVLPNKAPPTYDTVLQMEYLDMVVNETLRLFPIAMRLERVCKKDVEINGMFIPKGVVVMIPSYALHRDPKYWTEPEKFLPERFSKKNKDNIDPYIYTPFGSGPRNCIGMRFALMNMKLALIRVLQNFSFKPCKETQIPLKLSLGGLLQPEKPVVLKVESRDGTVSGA

With `C[C@@H]1COCCN1c1cc(C2CCCN(S(C)(=O)=O)C2)nc(-c2ccnc3[nH]ccc23)n1` (mixture of isomers), the IC50 in series [1] was 0.134 µM; in series [2], 0.113 µM; in series [3] it was 1.3 µM.
On to `C[C@@H]1COCCN1c1cc(N=S(C)(C)=O)nc(-c2ccnc(N)c2)c1`, for which the IC50 in series [1] was 0.875 µM; in series [3] it was above 10 µM.
With `C[C@@H]1COCCN1c1cc(N=[S@](C)(=O)C2CC2)nc(-c2ccnc3[nH]ccc23)n1`, the IC50 amounted to 0.324 µM in series [2] and 2.38 µM in series [3].
`COc1cc(-c2nc(N=[S@@](C)(=O)C3CC3)cc(N3CCOC[C@H]3C)n2)cc(N)n1`: the IC50 in series [2] was found to be 0.866 µM; in series [3] it was 7 µM. The compound further gave an intrinsic clearance (CLint scaled) at 0.75 h, 1 µM in “in vitro” of 7.1 mL/min/kg.
With `C[C@@H]1COCCN1c1cc(C2CCCS2(=O)=O)nc(-c2ccnc3[nH]ccc23)n1` (mixture of isomers), the results for the IC50 in series [2] and in series [3] were 0.274 µM and 3.9 µM, respectively.
For `C[C@@H]1COCCN1c1cc(N2CCCN(C)S2(=O)=O)nc(-c2ccnc3[nH]ccc23)n1`, in that order: 0.081 µM and 0.42 µM.
The like results for `C[C@@H]1COCCN1c1cc(N=[S@@](C)(=O)C2CC2)nc(-c2ccnc3[nH]ccc23)c1` were, in that order, 1.19 µM and 8.2 µM.
As to `Cc1cc2c(-c3nc(N=S(C)(C)=O)cc(N4CCOC[C@H]4C)n3)ccnc2[nH]1`, the IC50 stood at 0.502 µM in series [2] and 3.34 µM in series [3]. Besides, the inhibition at 10 µM on CYP3A4 stood at 56%.
`C[C@@H]1COCCN1c1cc(N=[S@@](C)(=O)C2CC2)nc(-c2ccnc3[nH]ccc23)n1`: the IC50 in series [2] came out at 0.165 µM; in series [3], 1.66 µM.
For `C[C@@H]1COCCN1c1cc(C2CCN(S(C)(=O)=O)CC2)nc(-c2ccnc3[nH]ccc23)n1`, in that order: 0.217 µM and 0.496 µM.
The like results for `CC[S@](C)(=O)=Nc1cc(N2CCOC[C@H]2C)nc(-c2ccnc3[nH]ccc23)n1` were, in that order, 0.891 µM and 2.16 µM.
With `C[C@@H]1COCCN1c1cc(N=S(C)(C)=O)nc(-c2ccnc3[nH]ccc23)n1`, the IC50 in series [2] was determined as 0.419 µM; in series [3], 2.4 µM.
On to `COc1cc(-c2nc(N=[S@](C)(=O)C3COC3)cc(N3CCOC[C@H]3C)n2)cc(N)n1`, for which the values for the IC50 in series [2] and in series [3] were 2.98 µM and 8.24 µM, respectively. The CLint scaled at 0.75 h, 1 µM in “in vitro” is 2.4 mL/min/kg.
Regarding `Cc1cc(-c2nc(N=S(C)(C)=O)cc(N3CCOC[C@H]3C)n2)cc(N)n1`, the IC50 in series [3] is above 10 µM.
Still for that read-out and setting: the result for `C[C@@H]1COCCN1c1cc(-c2ccnc3[nH]ccc23)nc(N=S(C)(C)=O)n1` reads above 10 µM.
Turning to `C[C@@H]1COCCN1c1cc(N=S(C)(C)=O)nc(-c2ccnc3[nH]ccc23)c1`, the IC50 in series [2] was determined as 1.6 µM; in series [3], 8.5 µM.
For `C[C@@H]1COCCN1c1cc(N=S(C)(=O)C2COC2)nc(-c2ccnc3[nH]ccc23)n1` (mixture of isomers), in that order: 0.307 µM and 2.19 µM.
For the compound `CC[S@@](C)(=O)=Nc1cc(N2CCOC[C@H]2C)nc(-c2ccnc3[nH]ccc23)n1`, the IC50 in series [2] amounted to 1.12 µM; in series [3] it was 1.71 µM.
With `C[C@@H]1COCCN1c1cc(N=[S@](C)(=O)C2CC2)nc(-c2ccnc3[nH]ccc23)c1`, the results for the IC50 in series [2] and in series [3] were 2.77 µM and 9.65 µM, respectively.
Take `COc1cc(-c2nc(N=[S@@](C)(=O)C3COC3)cc(N3CCOC[C@H]3C)n2)cc(N)n1`: the IC50 in series [2] came out at 0.421 µM; in series [3], 5.25 µM. The same compound yielded a CLint scaled at 0.75 h, 1 µM in the series “in vitro” of 13 mL/min/kg.
For `C[C@@H]1COCCN1c1cc(N=S(C)(=O)C2CCOCC2)nc(-c2ccnc3[nH]ccc23)n1` (mixture of isomers), in series [3], inhibition was half-maximal at 6.36 µM (IC50).
Take `COc1cc(-c2nc(N=S(C)(C)=O)cc(N3CCOC[C@H]3C)n2)cc(N)n1`: the values for the IC50 in series [2] and in series [3] were 2.21 µM and 8.26 µM, respectively.
The like results for `C[C@@H]1COCCN1c1cc(N=S(C)(C)=O)nc(-c2ccnc(N)c2)n1` were, in that order, 4.78 µM and 15.4 µM.
